In PMC6365201 (Organic & biomolecular chemistry, 2019):

Biological target: FrbG (Streptomyces rubellomurinus, UniProt Q0ZQ42, H221A)
Assay: NADPH oxidation at […] nm
Type: biochemical
Conditions: 500 μM substrate; 200 μM NADPH; 5 μM enzyme; 50 mM HEPES

Sequence of FrbG (Q0ZQ42 whole entry H221A): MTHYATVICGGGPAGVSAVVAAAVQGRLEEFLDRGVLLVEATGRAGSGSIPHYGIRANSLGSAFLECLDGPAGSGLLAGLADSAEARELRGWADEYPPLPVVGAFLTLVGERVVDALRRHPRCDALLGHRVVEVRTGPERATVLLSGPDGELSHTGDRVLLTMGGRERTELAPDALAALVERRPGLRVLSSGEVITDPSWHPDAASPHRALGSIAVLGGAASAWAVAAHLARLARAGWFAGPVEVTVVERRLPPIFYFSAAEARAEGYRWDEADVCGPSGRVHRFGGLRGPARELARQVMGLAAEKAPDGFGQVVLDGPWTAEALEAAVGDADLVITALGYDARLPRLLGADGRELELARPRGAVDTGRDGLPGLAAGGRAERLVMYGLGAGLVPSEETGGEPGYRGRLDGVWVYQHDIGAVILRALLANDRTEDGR

## NCCCP(=O)(O)OP(=O)(O)OC[C@H]1O[C@@H](n2ccc(N)nc2=O)[C@H](O)[C@@H]1O [compound 4, CMP-5’-3APn]
  NADPH oxidation at 340 nm: FrbG-H221A had significantly higher rates for both NADPH oxidation and substrate hydroxylation
